Measurements reported in the SangsterLogP compilation.

Point of comparison: `Cc1cccc(C(C)C)c1`, logP 4.5. Against it:
- CCc1cccc(C)c1 — lower, 3.98
- CCc1cccc(C)c1C — within 0.2 log units, 4.34
- CCCc1ccc(C)cc1 — within 0.2 log units, 4.6
- CCCc1ccccc1C — the same, 4.5
- CCc1ccc(C)c(C)c1 — the same, 4.5
- CCc1ccc(C)cc1 — lower, 4
- CCc1cc(C)ccc1C — within 0.2 log units, 4.43
- CCc1cc(C)cc(C)c1 — within 0.2 log units, 4.55
- Cc1ccc(C)cc1 — lower, 3.42
- CCc1ccc(C)cc1C — within 0.2 log units, 4.47
- CCc1ccccc1C — lower, 3.86
- CCc1c(C)cccc1C — lower, 4.28
- Cc1ccccc1C(C)C — within 0.2 log units, 4.38
- Cc1cccc(C)c1C — lower, 3.78
- CCCc1cccc(C)c1 — within 0.2 log units, 4.67
- CC(C)Cc1ccccc1 — within 0.2 log units, 4.68
- CCCCCCCCCc1ccccc1 — higher, 7.11
- CCC(C)c1ccccc1 (stereo not given) — within 0.2 log units, 4.57
- Cc1ccc(C)c(C)c1 — lower, 3.91
